Counter-ions that a name gives are not always drawn.

The experiment has as its target T1, ACE extracted from rabbit lungs (Oryctolagus cuniculus, UniProt P12822).
T1 construct: ACE extracted from rabbit lungs; from tissue; host or cells: rabbit lung
T1 sequence (P12822 34-1310): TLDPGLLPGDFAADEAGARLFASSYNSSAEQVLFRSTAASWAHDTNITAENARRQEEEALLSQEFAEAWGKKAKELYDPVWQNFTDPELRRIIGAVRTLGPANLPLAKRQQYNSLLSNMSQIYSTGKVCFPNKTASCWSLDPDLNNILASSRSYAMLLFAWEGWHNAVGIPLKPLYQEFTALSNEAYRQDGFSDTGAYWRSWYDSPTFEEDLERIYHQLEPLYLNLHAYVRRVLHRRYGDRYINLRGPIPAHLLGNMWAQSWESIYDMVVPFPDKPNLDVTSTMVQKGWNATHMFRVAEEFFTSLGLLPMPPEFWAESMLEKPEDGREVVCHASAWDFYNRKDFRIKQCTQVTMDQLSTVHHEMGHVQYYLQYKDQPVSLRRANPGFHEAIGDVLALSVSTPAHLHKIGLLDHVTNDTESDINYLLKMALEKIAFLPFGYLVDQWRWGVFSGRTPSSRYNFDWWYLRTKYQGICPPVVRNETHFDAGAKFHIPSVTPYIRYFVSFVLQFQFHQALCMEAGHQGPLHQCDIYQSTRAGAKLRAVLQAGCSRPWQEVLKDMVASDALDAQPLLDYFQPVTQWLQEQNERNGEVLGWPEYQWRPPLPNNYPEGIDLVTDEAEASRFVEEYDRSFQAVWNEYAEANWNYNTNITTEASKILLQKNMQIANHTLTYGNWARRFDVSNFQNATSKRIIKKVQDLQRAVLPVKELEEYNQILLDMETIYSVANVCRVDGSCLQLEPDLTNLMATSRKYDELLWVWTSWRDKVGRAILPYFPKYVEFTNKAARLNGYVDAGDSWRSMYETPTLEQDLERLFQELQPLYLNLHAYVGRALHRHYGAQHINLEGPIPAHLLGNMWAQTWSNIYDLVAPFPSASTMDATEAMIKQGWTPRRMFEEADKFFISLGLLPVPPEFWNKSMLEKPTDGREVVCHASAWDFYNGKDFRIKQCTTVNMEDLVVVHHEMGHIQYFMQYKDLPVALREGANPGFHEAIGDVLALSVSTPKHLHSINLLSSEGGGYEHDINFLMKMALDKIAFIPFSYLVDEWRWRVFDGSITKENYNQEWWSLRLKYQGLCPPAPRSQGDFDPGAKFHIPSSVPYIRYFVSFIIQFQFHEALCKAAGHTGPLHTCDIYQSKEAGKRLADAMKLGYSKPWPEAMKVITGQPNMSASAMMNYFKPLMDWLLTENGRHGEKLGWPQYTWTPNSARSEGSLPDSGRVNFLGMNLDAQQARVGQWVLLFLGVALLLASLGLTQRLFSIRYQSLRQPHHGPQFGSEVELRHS
Kind of experiment: in vitro ACE inhibition (hippurylhistidylleucine substrate, procedure of Cushman et al.). The experiment is classed as biochemical. The settings on record: rabbit lung ACE, borate buffer with NaCl, pH 8.3, 37° C., 30 minutes, read-out: IC50 (concentration required to inhibit the activity of ACE by 50% in vitro). From the text:
As noted above, the compounds of the present invention have the ability to inhibit the activity of ACE, the enzyme which converts angiotensin I to angiotensin II and also inactivates bradykinin. The physiological activity of the compounds of the invention can be evaluated by determining the concentration of the test compound required to inhibit the activity of ACE by 50% in vitro (IC50), for example by the procedure of D. W. Cushman et al. [Biochemical Pharmacology, 20, 1637 (1971)]. Specifically, solutions of ACE extracted from rabbit lungs and, as substrate, hippurylhistidylleucine, to which had been added the test compound at various concentrations, were added to a borate buffer solution containing sodium chloride, and the pH was adjusted to a value of 8.3. The enzymatic reaction was allowed to proceed at 37° C. for 30 minutes, after which time the reaction was terminated by adding 1N aqueous hydrochloric acid. […] The residual hippuric acid was dissolved in water. The amount of hippuric acid in the resulting aqueous solution was determined by the absorbency to ultraviolet radiation at 228 nm. The resulting values were then plotted to form a curve indicating the relationship between the amount of hippuric acid formed and the concentration of the test compound. The IC50 value can be obtained by reading on this curve the concentration of the test compound which reduces the amount of hippuric acid formed to one half of that formed when no test compound is present.
Regarding `O=C(O)CN1C[C@@H](c2ccccc2)CC[C@H](N[C@@H](CCCCC2CCNCC2)C(=O)O)C1=O` (relative stereo) [G, rel-α-{3(S)-[1(S)-Carboxy-5-(4-piperidyl)pentylamino]-2-oxo-6(R)-phenylperhydroazepin-1-yl}acetic acid], the IC50 came out at 3.7 nM.

Take `NCCCC[C@H](N[C@H]1CS[C@H](c2cccs2)CN(CC(=O)O)C1=O)C(=O)O` [A, α-{6(R)-[5-Amino-1(S)-carboxypentylamino]-5-oxo-2(S)-(2-thienyl)perhydro-1,4-thiazepin-4-yl}acetic acid dihydrochloride]: the IC50 was 3.3 nM.

With `NCCCCCC[C@H](N[C@H]1CS[C@H](c2cccs2)CN(CC(=O)O)C1=O)C(=O)O` [B, α-{6(R)-[7-Amino-1(S)-carboxyheptylamino]-5-oxo-2(S)-(2-thienyl)perhydro-1,4-thiazepin-4-yl}acetic acid], the IC50 came to 2 nM.

On to `NCCCCCCC(NC1CSC(c2ccccc2)CN(CC(=O)O)C1=O)C(=O)O` [C, rel-α-}6(R)-[7-Amino-1(S)-carboxyheptylamino]-5-oxo-2(R)-phenylperhydro-1,4-thiazepin-4-yl}acetic acid], for which the IC50 is 3.1 nM.

Regarding `NCCCCCCC[C@H](N[C@H]1CS[C@H](c2cccs2)CN(CC(=O)O)C1=O)C(=O)O` [D], the IC50 is 1.6 nM.

As for `NCCCCCCCC(NC1CCC(c2ccccc2)CN(CC(=O)O)C1=O)C(=O)O` [E, rel-α-{3(S)-[8-Amino-1(S)-carboxyoctylamino]-2-oxo-6(R)-phenylperhydrozepin-1-yl}acetic acid], the IC50 worked out at 4.1 nM.

On to `O=C(O)CN1C[C@@H](c2cccs2)SC[C@H](N[C@@H](CCCCC2CCNCC2)C(=O)O)C1=O` [F, α-{6(R)-[1(S)-Carboxy-5-(4-piperidyl)pentylamino]-5-oxo-2(S)-(2-thienyl)perhydro-1,4-thiazepin-4-yl}acetic acid], for which the IC50 turned out to be 1.6 nM.
